Like-named read-outs stand apart in the source and are kept apart here.
Columns and labels:
[1] = tested on: CL 5701 (Pseudomonas aeruginosa; Pa AmpC); assay: Synergy assay (checkerboard) with imipenem against P. aeruginosa strain CL5701; format: cell-based; conditions: for 2X Synergy CL5701: BLI concentration reducing the MIC of imipenem by a factor of 2, P. aeruginosa strain CL5701
[2] = tested on: CL 6569 (Klebsiella pneumoniae; KPC-2); assay: Synergy assay (checkerboard) with imipenem against K. pneumoniae strain CL6569; conditions: for 16X Synergy CL6569: BLI concentration reducing the MIC of imipenem by a factor of 16, K. pneumoniae strain CL6569; for 32X Synergy CL6569: BLI concentration reducing the MIC of imipenem by a factor of 32, K. pneumoniae strain CL6569; for 64X Synergy CL6569: BLI concentration reducing the MIC of imipenem by a factor of 64, K. pneumoniae strain CL6569
Description: The assay determines the concentration of a β-lactamase inhibitor required to reduce the MIC of a β-lactam antibiotic by one-half, one-quarter, one-eighth, one-sixteenth and one-thirty-second against strains of bacteria normally resistant to the antibiotic in question. This is accomplished by titrating the BLI in a serial dilution across a microtiter plate while at the same time titrating the antibiotic in a serial dilution down the microtiter plate and then inoculating the plate with the bacterial strain in question and allowing the bacteria to grow up overnight. Each well in this microplate checkerboard contains a different combination of concentrations of the inhibitor and the antibiotic allowing a full determination of any synergy between the two.
Plates are left at 37° C. for about 20 hours and scored for growth by eye.
Synergy may be expressed as a ratio of the minimum inhibitory concentration (MIC) of an antibiotic tested in the absence of a β-lactamase inhibitor to the MIC of the same antibiotic tested in the presence of the β-lactamase inhibitor. […] Alternatively, the synergy effect may be expressed as a factor, again, utilizing a concentration of the BLI to lower the MIC of the antibiotic.

AmpC (P. aeruginosa) = AmpC (P. aeruginosa) (Pseudomonas aeruginosa (strain ATCC 15692 / DSM 22644 / CIP 104116 / JCM 14847 / LMG 12228 / 1C / PRS 101 / PAO1), UniProt P24735); assay: biochemical
Description: The Class C enzyme activities were measured in the presence of the test inhibitor in spectrophotometric assay against the commercially available substrate, nitrocefin. The enzyme AmpC (P. aeruginosa.), and the substrate, were dissolved in 100 mM KH2PO4 buffer (pH 7). The buffer also contains 0.005% BSA. The test inhibitor was dissolved in DMSO and diluted 1:20 in the assay, resulting in a final concentration range of 50 μM to 0.0002 μM. In a 96-well microplate, the test inhibitor was incubated with the beta-lactamase enzyme for 40 minutes at ambient temperature, the substrate solution was added, and the incubation continued for another 40 minutes. […] The IC50 value was determined from semi logarithmic plots of enzyme inhibition versus inhibitor concentration, with a curve generated using a 4-parameter fit.

KPC-2 (K. pneumoniae) = KPC-2 (K. pneumoniae) (Klebsiella pneumoniae, UniProt Q9F663); assay: biochemical
[3] = BLI concentration reducing the MIC of imipenem by a factor of 4, P. aeruginosa strain CL5701
[4] = BLI concentration reducing the MIC of imipenem by a factor of 8, P. aeruginosa strain CL5701
[5] = Table 2, read-out: K.p. KPC-2 IC50
[6] = Table 3, read-out: K.p. KPC-2 IC50
[7] = Table 2, read-out: P.a. AmpC IC50
[8] = Table 3, read-out: P.a. AmpC IC50

Sequence of AmpC (P. aeruginosa) (P24735 27-397): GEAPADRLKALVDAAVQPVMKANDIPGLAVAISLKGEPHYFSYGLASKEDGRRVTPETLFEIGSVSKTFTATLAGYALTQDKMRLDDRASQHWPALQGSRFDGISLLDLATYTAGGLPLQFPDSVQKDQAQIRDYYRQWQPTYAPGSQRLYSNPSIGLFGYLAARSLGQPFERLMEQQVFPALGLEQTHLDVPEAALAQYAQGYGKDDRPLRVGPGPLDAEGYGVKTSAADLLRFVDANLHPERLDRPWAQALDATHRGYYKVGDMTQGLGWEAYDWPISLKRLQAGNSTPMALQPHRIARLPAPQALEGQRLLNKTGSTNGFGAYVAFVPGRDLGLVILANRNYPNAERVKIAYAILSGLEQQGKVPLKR
Sequence of KPC-2 (K. pneumoniae) (Q9F663 25-293 limits assumed): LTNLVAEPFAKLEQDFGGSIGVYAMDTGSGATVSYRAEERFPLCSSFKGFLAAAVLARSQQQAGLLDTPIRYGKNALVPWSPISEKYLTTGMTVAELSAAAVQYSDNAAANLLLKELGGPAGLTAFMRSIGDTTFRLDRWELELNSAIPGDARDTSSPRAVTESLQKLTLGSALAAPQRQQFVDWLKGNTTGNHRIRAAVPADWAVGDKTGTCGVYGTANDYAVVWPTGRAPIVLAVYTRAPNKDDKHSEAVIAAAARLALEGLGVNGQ

Structure (SMILES): O=C(NC1CCNCC1)[C@@H]1CC[C@@H]2CN1C(=O)N2OS(=O)(=O)O [Example 1, (2S,5R)-7-oxo-N-piperidin-4-yl-6-(sulfooxy)-1,6-diazabicyclo[3.2.1]octane-2-carboxamide]
- 2X Synergy CL5701 [1]: 0.2 µM
- 4X Synergy CL5701 [1, 3]: 3.12 µM
- 8X Synergy CL5701 [1, 4]: 6.25 µM
- 16X Synergy CL6569 [2]: 6.25 µM
- 32X Synergy CL6569 [2]: 12.5 µM
- 64X Synergy CL6569 [2]: 12.5 µM

Structure (SMILES): O=C(N[C@H]1CCCNCC1)[C@@H]1CC[C@@H]2CN1C(=O)N2OS(=O)(=O)O [Example 2, (2S,5R)—N-[(4S)-Azepan-4-yl]-7-oxo-6-(sulfooxy)-1,6-diazabicyclo[3.2.1]-octane-2-carboxamide]
- 2X Synergy CL5701 [1]: 3.12 µM
- 4X Synergy CL5701 [1, 3]: 6.25 µM
- 8X Synergy CL5701 [1, 4]: 6.25 µM
- 16X Synergy CL6569 [2]: 6.25 µM
- 32X Synergy CL6569 [2]: 12.5 µM
- 64X Synergy CL6569 [2]: 25 µM
- IC50 (AmpC (P. aeruginosa)): 69 nM
- IC50 (KPC-2 (K. pneumoniae); [5]): 245 nM
- IC50 (KPC-2 (K. pneumoniae); [6]): 245 nM

Structure (SMILES): O=C(N[C@@H]1CCNC1)[C@@H]1CC[C@@H]2CN1C(=O)N2OS(=O)(=O)O [Example 4, (2S,5R)-7-Oxo-N-[(3R)-pyrrolidin-3-yl]-6-(sulfooxy)-1,6-diazabicyclo[3.2.1]-octane-2-carboxamide]
- 2X Synergy CL5701 [1]: 100/100/>100 μM
- 4X Synergy CL5701 [1, 3]: 100/100/>100 μM
- 8X Synergy CL5701 [1, 4]: 100/100/>100 μM
- 16X Synergy CL6569 [2]: 50 µM
- 32X Synergy CL6569 [2]: 100 µM
- 64X Synergy CL6569 [2]: 100 µM
- IC50 (AmpC (P. aeruginosa); [7]): 29000 nM
- IC50 (KPC-2 (K. pneumoniae); K.p. KPC-2 IC50, Table 2): 4400 nM

Structure (SMILES): O=C(Nc1ccncc1)[C@@H]1CC[C@@H]2CN1C(=O)N2OS(=O)(=O)O [Example 6, (2S,5R)-7-Oxo-N-pyridin-4-yl-6-(sulfooxy)-1,6-diazabicyclo[3.2.1]octane-2-carboxamide]
- 4X Synergy CL5701 [1]: 25 µM
- 8X Synergy CL5701 [1]: 100 µM
- 2X Synergy CL5701 [1]: 12.5 µM
- 16X Synergy CL6569 [2]: 50 µM
- 32X Synergy CL6569 [2]: 50 µM
- 64X Synergy CL6569 [2]: > 100 µM
- IC50 (AmpC (P. aeruginosa)): 6 nM

Structure (SMILES): COc1cc(NC(=O)[C@@H]2CC[C@@H]3CN2C(=O)N3OS(=O)(=O)O)ccn1 [Example 7, (2S,5R)—N-(2-Methoxypyridin-4-yl)-7-oxo-6-(sulfooxy)-1,6-diazabicyclo[3.2.1]octane-2-carboxamide]
- 2X Synergy CL5701 [1]: 50 µM
- 4X Synergy CL5701 [1, 3]: 100 µM
- 8X Synergy CL5701 [1, 4]: > 100 µM
- 16X Synergy CL6569 [2]: 25 µM
- 32X Synergy CL6569 [2]: 50 µM
- 64X Synergy CL6569 [2]: > 100 µM
- IC50 (AmpC (P. aeruginosa); [7]): 1.1 nM
- IC50 (AmpC (P. aeruginosa); [8]): 11 nM
- IC50 (KPC-2 (K. pneumoniae); [5]): 8 nM
- IC50 (KPC-2 (K. pneumoniae); [6]): 8 nM

Structure (SMILES): CN(C)c1cc(NC(=O)[C@@H]2CC[C@@H]3CN2C(=O)N3OS(=O)(=O)O)ccn1 [Example 8, (2S,5R)—N-[2-(Dimethylamino)pyridin-4-yl]-7-oxo-6-(sulfooxy)-1,6-diazabicyclo[3.2.1]octane-2-carboxamide]
- 2X Synergy CL5701 [1]: 12.5 µM
- 4X Synergy CL5701 [1, 3]: 100 µM
- 8X Synergy CL5701 [1, 4]: > 100 µM
- 16X Synergy CL6569 [2]: 25 µM
- 32X Synergy CL6569 [2]: 25 µM
- 64X Synergy CL6569 [2]: 50 µM
- IC50 (AmpC (P. aeruginosa); [7]): 1.6 nM
- IC50 (AmpC (P. aeruginosa); [8]): 16 nM
- IC50 (KPC-2 (K. pneumoniae); [5]): 1.6 nM
- IC50 (KPC-2 (K. pneumoniae); [6]): 16 nM

Structure (SMILES): NCc1ccc(NC(=O)[C@@H]2CC[C@@H]3CN2C(=O)N3OS(=O)(=O)O)cc1 [Example 9, (2S,5R)—N-[4-(aminomethyl)phenyl]-7-oxo-6-(sulfooxy)-1,6-diazabicyclo[3.2.1]octane-2-carboxamide]
- 2X Synergy CL5701 [1]: 0.78 µM
- 4X Synergy CL5701 [1, 3]: 3.12 µM
- 8X Synergy CL5701 [1, 4]: 6.25 µM
- 16X Synergy CL6569 [2]: 6.25 µM
- 32X Synergy CL6569 [2]: 6.25 µM
- 64X Synergy CL6569 [2]: 12.5 µM
- IC50 (AmpC (P. aeruginosa); [7]): 20 nM
- IC50 (KPC-2 (K. pneumoniae); [5]): 72 nM

Structure (SMILES): O=C(OCC1CNCCCO1)[C@@H]1CC[C@@H]2CN1C(=O)N2OS(=O)(=O)O (some centres unmarked) [Example 114]
- IC50 (AmpC (P. aeruginosa); [8]): 340 nM
- IC50 (KPC-2 (K. pneumoniae); [6]): 11 nM

Structure (SMILES): NCc1ccc(OC(=O)[C@@H]2CC[C@@H]3CN2C(=O)N3OS(=O)(=O)O)cc1 [Example 115]
- IC50 (AmpC (P. aeruginosa); [8]): 24 nM
- IC50 (KPC-2 (K. pneumoniae); [6]): 2 nM

Structure (SMILES): CC(=O)Oc1ccc(C(=O)NCCOC(=O)[C@@H]2CC[C@@H]3CN2C(=O)N3OS(=O)(=O)O)cc1OC(C)=O [Example 116]
- IC50 (AmpC (P. aeruginosa); [8]): 440 nM
- IC50 (KPC-2 (K. pneumoniae); [6]): 70 nM

Structure (SMILES): CC(=O)Oc1ccc(C(=O)NCC(CNC(=O)c2ccc(OC(C)=O)c(OC(C)=O)c2)OC(=O)[C@@H]2CC[C@@H]3CN2C(=O)N3OS(=O)(=O)O)cc1OC(C)=O [Example 117]
- IC50 (AmpC (P. aeruginosa); [8]): 61 nM
- IC50 (KPC-2 (K. pneumoniae); [6]): 12 nM

Structure (SMILES): CC1(C)[C@H](C(=O)O)N2C(=O)C[C@H]2S1(=O)=O [Sulbactam, sulbactam, reference compound]
- IC50 (AmpC (P. aeruginosa); [7]): 17000 nM
- IC50 (KPC-2 (K. pneumoniae); [5]): 33000 nM

Source: patent US8487093B2, “β-lactamase inhibitors” (Merck Sharp & Dohme Corp., priority 2008, dated 2013)
